Values of other authors, collected in US8748394B2, “Apo A-I mimetic peptides and methods of treatment” (Abbott Cardiovascular Systems Inc., priority 2007, dated 2014).
Entries after “also recorded” stand apart in the source; their conditions may differ. Square brackets hold non-standard residues; d marks the D form. Ends that are not written are not given here.

Tested on: reverse cholesterol transport
Conditions: for function in reverse cholesterol transport in vitro: when a phospholipid complex is presented; for effectiveness in reverse cholesterol transport: without a lipid complex (non-complex form)

Which “need of phospholipid complex for effective reverse cholesterol transport” value does the source give for “Ac-PALEDLRQGLLPVLESFKVFLSALEEYTKKLNTQ-NH2 [33-mer peptide mimetic, 33-mer peptide, helices 9/10]” here?
The value was “requires phospholipid complex formation”.

Which “function in reverse cholesterol transport in vitro” value does the source give for “DWFKAFYDKVAEKFKEAF [D-4F] ([dD][dW][dF][dK][dA][dF][dY][dD][dK][dV][dA][dE][dK][dF][dK][dE][dA][dF]) [18 amino acid Apo A-I mimetic peptide 4F, D enantiomer]” here?
The value was “function more effectively”.

And the “effectiveness in reverse cholesterol transport” value?
Its value is “effective in reverse cholesterol transport without a lipid complex; also recorded: demonstrated an ability to function in a non-complex form”.

For “DWFKAFYDKVAEKFKEAF [L-4F] (not fully specified) [18 amino acid Apo A-I mimetic peptide 4F, L enantiomer]”, which “function in reverse cholesterol transport in vitro” value is on record?
Its value is “function more effectively”.

And the “effectiveness in reverse cholesterol transport” value?
The value was “demonstrated an ability to function in a non-complex form”.
